Consider one molecule from US20240156764A1, “INHIBITION OF URACIL DNA GLYCOSYLASE IN THE OPEN CONFORMATION” (CASE WESTERN RESERVE UNIVERSITY, priority 2022, published 2024).

Assay [1] relates to T:G basepairs (TDG, MBD4) repair in MCF-7 cells. The assay can be described thus: Host-cell reactivation assay, T:G reporter, MCF-7. It counts as cell-based, human. The note with it: ATA 2.5 μM. As for the experimental part:
Panel A: 1.25 μM and panel B: 2.5 μM. Reporter expression was calculated for each dose of ATA as described in prior publications and normalized to DMSO treatment.
Removal of uracil in cells was measured using a reporter plasmid containing a dU:dG base pair (referred to as BFP_U), as described previously. In brief, dU is substituted into the transcribed strand at position 191 of the blue fluorescent protein (BFP) gene. When RNA polymerase II incorporates dA opposite dU, transcripts encoding wild type BFP are produced. Upon repair, dU is replaced by dC, leading to production of transcripts encoding a non-fluorescent protein. […] A corresponding cocktail of damage-free plasmids containing pmax BFP (100 ng per transfection), pmax GFP (100 ng per transfection), and carrier plasmid (800 ng per transfection) constituted the “undamaged” cocktail. After normalizing to expression of the pmax,GFP transfection control, expression of BFP_U in the damaged cocktail was normalized to similarly normalized expression of pmax_BFP in the undamaged cocktail. The reciprocal of BFP_U reporter expression was calculated for each experimental condition. […] This creates a premature stop codon, completely abolishing fluorescence. Removal of thymidine followed by insertion of dC opposite dG restores reporter fluorescence.

Assay [2] addresses human UDG (Homo sapiens, UniProt P13051). The assay can be described thus: High-throughput screening assay: UDG-mediated unquenching of fluorescent uracil DNA hairpin. It counts as biochemical. More on the design: 6xHis; purchased XTAL Biostructures; host or cells: Sf9 insect cells. The note with it: purified human UDG, initial value, read-out: IC50 for the purified human UDG (un-quenching of fluorescence from the DNA hairpin). As for the experimental part: FIGS. 1(A-D) illustrate high-Throughput Small-Molecule Screening for UDG Inhibitors. A: 60 min reaction time-course experiment was performed to measure human UDG enzymatic activity in the presence of 10 nM UDG (red line) or absence of UDG (black line) uracil DNA hairpin (25 nM) only control. Each data point is the average of 12 reaction replicates from a 384-well plate. Error bars represent the standard deviation from the mean. B: Two independent screens using a plate of 320 compounds were plotted on the same graph with the trend line showing a positive correlation between the two runs with an R2 value of 0.711 using y=mx+b. […] Normalized percent activity of UDG-mediated unquenching of fluorescence DNA hairpin is shown. […] Control condition denotes RFU-UDG AVG (DNA alone no protein); the average relative fluorescence unit (RFU) value was computed using a set of 32 replicate wells per screening plate. […]
The collection of biologically active molecules was compiled from the LOPAC library (Sigma Aldrich) and Bioactive Compound Library (Selleck Chemicals). […] After 40 min of incubation at room temperature (˜23° C.), fluorescence measurements were done using an Enspire plate reader (Perkin Elmer) at an excitation wavelength of 485 nm and emission wavelength of 520 nm. Compound performance from per plate was calculated and normalized accounting for background fluorescence by the following equation: […]

human UDG, sequence (P13051 1-304 isoform P13051-2): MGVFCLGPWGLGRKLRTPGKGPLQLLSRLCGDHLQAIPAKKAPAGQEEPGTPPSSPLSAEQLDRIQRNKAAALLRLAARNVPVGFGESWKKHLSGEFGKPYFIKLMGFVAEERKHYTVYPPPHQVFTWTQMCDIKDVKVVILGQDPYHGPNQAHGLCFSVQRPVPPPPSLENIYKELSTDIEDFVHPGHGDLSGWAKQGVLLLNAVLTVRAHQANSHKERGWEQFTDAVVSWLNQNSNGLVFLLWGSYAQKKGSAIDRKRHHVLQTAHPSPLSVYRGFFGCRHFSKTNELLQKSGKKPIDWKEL

In the case of `O=C(O)C1=CC(=C(c2ccc(O)c(C(=O)O)c2)c2ccc(O)c(C(=O)O)c2)C=CC1=O` [ATA, aurintricarboxylic acid], the “inhibition of repair of T:G basepair” value in assay [1] was “not inhibiting”. Moreover, the IC50 in assay [2] worked out at 0.04 µM.

The term IC50 denotes the concentration that inhibits the measured activity by half.
